The record followed here is US11446353B2, “Compositions and methods for the treatment of fungal infections” (priority 2014, dated 2022).

Experiment [1] concerns Coccidioides posadasii Δcts2/Δard1/Δcts3. The class given is cell-based.
Experiment [2] has the same test system.

The structures appear in SMILES notation.

Take `CC/C(=C(\c1ccccc1)c1ccc(OCCN(C)C)cc1)c1ccccc1` [Tamoxifen]: the “hit strength in screen” value in experiment [1] is “strong positive hit”. For the same molecule, in experiment [2], the “fungal growth inhibitory properties” value was “strong fungal growth inhibitory properties”.
